Results: ChEMBL document CHEMBL5260813, “An overview on the recent developments of 1,2,4-triazine derivatives as anticancer compounds” (Eur J Med Chem, 2017)
pIC50: −log10 of the molar value.

Experiments:
[1] = test system: BT-474; experiment: Antiproliferative activity against human BT-474 cells assessed as inhibition of cell growth; type: functional, cell-based
[2] = test system: KB; experiment: Antiproliferative activity against human KB cells assessed as inhibition of cell growth under hypoxia condition; type: functional, cell-based
[3] = test system: K562; experiment: Induction of apoptosis in human K562 cells assessed as increase in apoptotic cells under normoxia condition relative to control; type: functional
[4] = test system: K562; experiment: Induction of apoptosis in human K562 cells assessed as increase in apoptotic cells under hypoxia condition relative to control; type: functional
[5] = target: Epidermal growth factor receptor (Homo sapiens, UniProt P00533); experiment: Inhibition of EGFR (unknown origin)
[6] = target: Vascular endothelial growth factor receptor 2 (Homo sapiens, UniProt P35968); experiment: Inhibition of VEGFR-2 (unknown origin)
[7] = Antiproliferative activity against human DiFi cells assessed as inhibition of cell growth by MTS assay
[8] = test system: OVCAR-4; experiment: Antiproliferative activity against human OVCAR-4 cells assessed as cell growth inhibition; type: functional, cell-based
[9] = test system: HL-60; experiment: Antiproliferative activity against human HL-60 cells assessed as inhibition of cell growth under normoxia condition incubated for 72 hrs by MTT assay; type: functional, cell-based; details: HL-60, 72 h
[10] = test system: Bel-7402; experiment: Antiproliferative activity against human Bel-7402 cells assessed as inhibition of cell growth under normoxia condition incubated for 72 hrs by MTT assay; type: functional, cell-based; details: Bel-7402, 72 h
[11] = test system: ECa-109 cell line; experiment: Antiproliferative activity against human Eca-109 cells assessed as inhibition of cell growth under normoxia condition incubated for 72 hrs by MTT assay; type: functional, cell-based; details: ECa-109, 72 h
[12] = test system: PC-3; experiment: Antiproliferative activity against human PC-3 cells assessed as inhibition of cell growth under normoxia condition incubated for 72 hrs by MTT assay; type: functional, cell-based; details: PC-3, 72 h
[13] = test system: MCF7; experiment: Antiproliferative activity against human MCF7 cells assessed as inhibition of cell growth under normoxia condition incubated for 72 hrs by MTT assay; type: functional, cell-based; details: MCF7, 72 h
[14] = test system: HL-60; experiment: Antiproliferative activity against human HL-60 cells assessed as inhibition of cell growth under hypoxia condition incubated for 72 hrs by MTT assay; type: functional, cell-based; details: HL-60, 72 h
[15] = test system: Bel-7402; experiment: Antiproliferative activity against human Bel-7402 cells assessed as inhibition of cell growth under hypoxia condition incubated for 72 hrs by MTT assay; type: functional, cell-based; details: Bel-7402, 72 h
[16] = test system: ECa-109 cell line; experiment: Antiproliferative activity against human Eca-109 cells assessed as inhibition of cell growth under hypoxia condition incubated for 72 hrs by MTT assay; type: functional, cell-based; details: ECa-109, 72 h
[17] = test system: MCF7; experiment: Antiproliferative activity against human MCF7 cells assessed as inhibition of cell growth under hypoxia condition incubated for 72 hrs by MTT assay; type: functional, cell-based; details: MCF7, 72 h
[18] = test system: PC-3; experiment: Antiproliferative activity against human PC-3 cells assessed as inhibition of cell growth under hypoxia condition incubated for 72 hrs by MTT assay; type: functional, cell-based; details: PC-3, 72 h
[19] = Ratio of IC50 for antiproliferative activity against human HL-60 cells assessed as inhibition of cell growth under normoxia condition to IC50 for antiproliferative activity against human HL-60 cells assessed as inhibition of cell growth under hypoxia condition; type: functional
[20] = Ratio of IC50 for antiproliferative activity against human Bel-7402 cells assessed as inhibition of cell growth under normoxia condition to IC50 for antiproliferative activity against human Bel-7402 cells assessed as inhibition of cell growth under hypoxia condition; type: functional
[21] = Ratio of IC50 for antiproliferative activity against human Eca-109 cells assessed as inhibition of cell growth under normoxia condition to IC50 for antiproliferative activity against human Eca-109 cells assessed as inhibition of cell growth under hypoxia condition; type: functional
[22] = Ratio of IC50 for antiproliferative activity against human MCF7 cells assessed as inhibition of cell growth under normoxia condition to IC50 for antiproliferative activity against human MCF7 cells assessed as inhibition of cell growth under hypoxia condition; type: functional
[23] = Ratio of IC50 for antiproliferative activity against human PC-3 cells assessed as inhibition of cell growth under normoxia condition to IC50 for antiproliferative activity against human PC-3 cells assessed as inhibition of cell growth under hypoxia condition; type: functional
[24] = test system: HepG2; experiment: Antiproliferative activity against human HepG2 cells assessed as cell growth inhibition; type: functional, cell-based
[25] = test system: MCF7; experiment: Antiproliferative activity against human MCF7 cells assessed as inhibition of cell growth; type: functional, cell-based
[26] = test system: HCT-116; experiment: Antiproliferative activity against human HCT-116 cells assessed as inhibition of cell growth; type: functional, cell-based
[27] = test system: MCF7; experiment: Cytotoxicity against human MCF7 cells assessed as inhibition of cell growth incubated for 72 hrs by MTT assay; type: functional, cell-based; details: MCF7, 72 h
[28] = test system: HL-60; experiment: Antiproliferative activity against human HL-60 cells assessed as inhibition of cell growth incubated for 72 hrs by MTT assay; type: functional, cell-based; details: HL-60, 72 h
[29] = test system: MOLT-4; experiment: Antiproliferative activity against human MOLT-4 cells assessed as inhibition of cell growth incubated for 72 hrs by MTT assay; type: functional, cell-based; details: MOLT-4, 72 h

Sequence of Epidermal growth factor receptor (P00533 whole entry): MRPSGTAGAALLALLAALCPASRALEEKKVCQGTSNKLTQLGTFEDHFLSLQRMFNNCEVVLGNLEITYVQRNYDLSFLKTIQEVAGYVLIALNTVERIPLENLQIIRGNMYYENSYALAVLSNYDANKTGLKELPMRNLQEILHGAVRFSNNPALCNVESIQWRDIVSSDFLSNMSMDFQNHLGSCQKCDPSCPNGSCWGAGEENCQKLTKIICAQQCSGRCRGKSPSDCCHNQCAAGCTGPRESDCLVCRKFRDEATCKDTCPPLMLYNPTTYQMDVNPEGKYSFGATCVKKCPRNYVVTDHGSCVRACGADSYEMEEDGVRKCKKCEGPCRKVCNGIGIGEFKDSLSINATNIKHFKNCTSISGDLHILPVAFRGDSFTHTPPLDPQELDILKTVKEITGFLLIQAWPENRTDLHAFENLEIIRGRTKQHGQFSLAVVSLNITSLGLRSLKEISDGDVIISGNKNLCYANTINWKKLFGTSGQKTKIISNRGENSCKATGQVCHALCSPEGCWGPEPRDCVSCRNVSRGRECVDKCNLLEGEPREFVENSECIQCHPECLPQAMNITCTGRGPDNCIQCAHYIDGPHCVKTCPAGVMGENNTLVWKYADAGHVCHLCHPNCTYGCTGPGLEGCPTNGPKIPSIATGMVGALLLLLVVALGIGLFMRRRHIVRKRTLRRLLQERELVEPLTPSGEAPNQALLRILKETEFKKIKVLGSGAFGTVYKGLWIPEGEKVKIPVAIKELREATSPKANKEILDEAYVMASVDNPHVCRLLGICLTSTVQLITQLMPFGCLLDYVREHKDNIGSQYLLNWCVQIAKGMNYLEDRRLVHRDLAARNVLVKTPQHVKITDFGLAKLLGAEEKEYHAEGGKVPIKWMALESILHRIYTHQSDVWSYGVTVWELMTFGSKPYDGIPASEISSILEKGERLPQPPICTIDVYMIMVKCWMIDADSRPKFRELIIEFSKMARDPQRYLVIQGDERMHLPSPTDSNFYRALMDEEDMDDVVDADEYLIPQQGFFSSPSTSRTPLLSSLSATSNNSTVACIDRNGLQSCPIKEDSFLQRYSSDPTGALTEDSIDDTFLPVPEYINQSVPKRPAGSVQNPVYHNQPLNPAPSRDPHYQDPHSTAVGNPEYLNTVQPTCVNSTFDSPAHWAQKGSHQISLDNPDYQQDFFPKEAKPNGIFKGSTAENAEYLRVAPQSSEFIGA
Sequence of Vascular endothelial growth factor receptor 2 (P35968 whole entry): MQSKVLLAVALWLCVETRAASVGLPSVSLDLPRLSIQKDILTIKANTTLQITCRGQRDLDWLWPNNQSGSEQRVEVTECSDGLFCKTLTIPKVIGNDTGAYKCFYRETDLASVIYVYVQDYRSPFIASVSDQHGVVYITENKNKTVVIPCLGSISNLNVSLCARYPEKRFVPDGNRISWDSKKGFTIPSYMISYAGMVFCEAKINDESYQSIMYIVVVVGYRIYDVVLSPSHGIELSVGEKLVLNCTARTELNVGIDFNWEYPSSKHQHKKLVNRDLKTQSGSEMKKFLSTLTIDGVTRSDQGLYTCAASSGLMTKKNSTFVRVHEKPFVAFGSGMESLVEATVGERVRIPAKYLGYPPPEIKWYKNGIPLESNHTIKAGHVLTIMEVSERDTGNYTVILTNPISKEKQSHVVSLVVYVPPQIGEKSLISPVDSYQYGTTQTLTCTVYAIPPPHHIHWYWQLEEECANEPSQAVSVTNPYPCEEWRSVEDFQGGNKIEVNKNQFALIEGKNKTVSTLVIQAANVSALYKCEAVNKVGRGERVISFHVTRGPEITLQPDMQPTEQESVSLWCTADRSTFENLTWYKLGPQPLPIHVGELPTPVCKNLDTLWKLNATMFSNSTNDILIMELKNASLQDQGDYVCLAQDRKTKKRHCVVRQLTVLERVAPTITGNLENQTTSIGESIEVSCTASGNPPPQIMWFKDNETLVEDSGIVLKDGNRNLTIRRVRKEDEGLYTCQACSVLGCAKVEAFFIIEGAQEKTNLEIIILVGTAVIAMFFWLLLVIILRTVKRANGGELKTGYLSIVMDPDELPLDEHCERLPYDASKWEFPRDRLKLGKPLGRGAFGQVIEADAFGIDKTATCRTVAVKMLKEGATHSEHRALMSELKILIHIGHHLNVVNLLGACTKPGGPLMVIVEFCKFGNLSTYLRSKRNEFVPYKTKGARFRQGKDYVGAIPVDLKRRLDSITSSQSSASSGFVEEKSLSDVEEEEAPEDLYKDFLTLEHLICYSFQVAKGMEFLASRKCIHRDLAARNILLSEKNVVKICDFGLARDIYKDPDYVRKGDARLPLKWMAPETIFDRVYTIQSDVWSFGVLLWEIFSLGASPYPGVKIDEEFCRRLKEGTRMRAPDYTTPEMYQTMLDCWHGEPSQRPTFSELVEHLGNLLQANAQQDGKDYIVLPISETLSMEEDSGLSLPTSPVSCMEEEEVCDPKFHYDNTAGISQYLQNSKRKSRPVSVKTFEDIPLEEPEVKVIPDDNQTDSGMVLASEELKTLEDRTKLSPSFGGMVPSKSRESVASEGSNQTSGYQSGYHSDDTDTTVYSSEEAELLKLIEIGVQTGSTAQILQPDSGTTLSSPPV

Structure (SMILES): CCCc1nc2c(=O)n(C)c(=O)nc-2n(C)n1
- pIC50 [1]: 6.05

Structure (SMILES): Cn1nc(Cc2ccccc2)nc2c(=O)n(C)c(=O)nc1-2
- pIC50 [1]: 6.05

Structure (SMILES): CCn1nc(-c2ccccc2)nc2c(=O)n(C)c(=O)nc1-2
- pIC50 [1]: 6.05

Structure (SMILES): Cn1nc(-c2ccccc2)nc2c(=O)n(C)c(=O)nc1-2
- pIC50 [1]: 6.05

Structure (SMILES): COc1ccc(COCNc2n[n+]([O-])c3ccccc3[n+]2[O-])cc1
- pIC50 [2]: 5.48
- Activity [3]: 14.13%
- Activity [4]: 33.07%

Structure (SMILES): [O-][n+]1nc(NCOCc2ccc(C(F)(F)F)cc2)[n+]([O-])c2ccccc21
- pIC50 [2]: 5.37
- Activity [3]: 14.95%
- Activity [4]: 54.24%

Structure (SMILES): Cc1ccc2c(Nc3ccc(F)c(Cl)c3)ncnn12
- pIC50 [5]: < 5.70
- pIC50 [6]: 5.49
- pIC50 [7]: 5.80

Structure (SMILES): Cc1cc2c(Nc3ccc(C)c(O)c3)ncnn2c1
- pIC50 [5]: 6.39
- pIC50 [6]: 6.18

Structure (SMILES): Fc1ccc(Nc2ncnn3cccc23)cc1Cl
- pIC50 [5]: < 5.00
- pIC50 [6]: 6.93
- pIC50 [7]: 5.80

Structure (SMILES): Cc1ccc(Nc2ncnn3cccc23)cc1O
- pIC50 [5]: 5.84
- pIC50 [6]: 6.29

Structure (SMILES): Cc1ccc(Nc2ncnn3cc(C)c(C)c23)cc1O
- pIC50 [5]: 7.64
- pIC50 [6]: 6.70

Structure (SMILES): Cc1cc2c(Nc3ccc(F)c(Cl)c3)ncnn2c1
- pIC50 [5]: < 5.70
- pIC50 [6]: 6.82
- pIC50 [7]: 5.80

Structure (SMILES): Cc1ccn2ncnc(Nc3ccc(F)c(Cl)c3)c12
- pIC50 [5]: < 5.00
- pIC50 [6]: 7.00
- pIC50 [7]: 5.80

Structure (SMILES): Cc1ccc(Nc2ncnn3ccc(C)c23)cc1O
- pIC50 [5]: 7.18
- pIC50 [6]: 6.46

Structure (SMILES): Cc1c(-c2ccccc2)c(C#N)c2nnc(C(N)=O)c(N)n12
- pIC50 [8]: 5.56

Structure (SMILES): CCOC(=O)c1nnc2c(C#N)c(-c3ccccc3)c(C)n2c1N
- pIC50 [8]: 5.56

Structure (SMILES): [O-][n+]1nc(NC2CCCCC2)[n+]([O-])c2ccc(Cl)cc21
- pIC50 [9]: 6.70
- pIC50 [10]: 6.70
- pIC50 [11]: 6.70
- pIC50 [12]: 6.70
- pIC50 [13]: 6.70
- pIC50 [14]: 6.70
- pIC50 [15]: 6.70
- pIC50 [16]: 6.70
- pIC50 [17]: 6.70
- pIC50 [18]: 6.70
- Ratio IC50 [19]: 6.4
- Ratio IC50 [20]: 1
- Ratio IC50 [21]: 2.9
- Ratio IC50 [22]: 2.7
- Ratio IC50 [23]: 2

Structure (SMILES): O=c1c(/C=C/c2cccs2)nnc(S)n1NC(=S)Nc1ccccc1
- pIC50 [24]: 5.06
- pIC50 [25]: 5.06
- pIC50 [26]: 5.06

Structure (SMILES): O=c1c(/C=C/c2cccs2)nnc(S)n1/N=C/c1cccs1
- pIC50 [24]: 5.06
- pIC50 [25]: 5.06
- pIC50 [26]: 5.06

Structure (SMILES): Clc1ccc(CSc2nnc3c(n2)-c2cccc4cccc-3c24)cc1
- pIC50 [27]: 4.52
- pIC50 [28]: 4.52
- pIC50 [29]: 4.52

Structure (SMILES): CCOC(=O)c1nnc2c(C#N)c(C)c(-c3ccccc3)n2c1N
- pIC50 [8]: 5.56

Structure (SMILES): Nn1c(S)nnc(/C=C/c2cccs2)c1=O
- pIC50 [24]: 5.06
- pIC50 [25]: 5.06
- pIC50 [26]: 5.06
